# Experimental data reported in patent publication US11584741B2, “Crystalline forms of 4-(5-(4,7-dimethylbenzofuran-2-yl)-1,2,4-oxadiazol-3-yl)benzoic acid and processes for their preparation” (King's College London, priority 2016, dated 2023).
# Key:
# [1] = tested on: rats with severed and re-implanted sensory roots at the level of the left forelimb; test: Sensory roots of four DRG severed and re-implanted into the spinal cord, sticky tape tests; assay type: in vivo; details: rat, after 5 weeks, 1 mg/kg three times a week
# Method: In another example of nerve injury, the four sensory roots from each of four DRG at the level of the left forelimb were severed and re-implanted into the spinal cord.
# The results are illustrated in Borthwick et al., 2016. […] Rats were treated with 1 mg/kg of the test compound or vehicle two days after lesion, and then three times a week for the period of the experiment. Error bars show SEM. ***P<0.001, students t test, n=3-4 rats for each treatment group. At weeks 3, 4, and 5, there was significant difference between the rats treated with RARβ agonist as compared to rats treated with other retinoid agonists and vehicle.
# cortical explants = test: Neurite outgrowth from cultured cortex of treated lesioned animals; assay type: cell-based, rat; details: cortex of lesioned rats treated in vivo; vehicle: did not grow
# Method: When pieces of cortex from these RARβ agonist treated animals were cultured, neurite outgrowth was observed, in contrast to cortex from control lesioned animals.
# (§1) Cerebellar neurons isolated from post-natal day 3 rat pups were cultured over monolayers of parental 3T3 cells in control media, or media supplemented with a recombinant MAG-Fc chimera (R&D Systems) used at a final concentration of 20 μg/mL MAG-Fc. The monolayers were established for 24 hours prior to addition of the neurons and the co-cultures were maintained for approximately 21 hours. Following careful fixation with 4% paraformaldehyde, the neurons were immuno-stained with a GAP-43 antibody (from Graham Wilkin, Imperial College), dilution of 1:500, and the mean length of the longest neurite per cell was measured for approximately 120-150 neurons as previously described (see, e.g., Williams et al., 2005). DRG and cortical explants were obtained from adult rats, they were cultured in cellogen as previously described (see, e.g., Corcoran and Maden, 1999). Three explants per treatment were used. Neurite outgrowth was assessed 3 days later by immunohistochemistry with NF200 (Sigma, dilution of 1:200). The average lengths of the neurites were measured using image pro plus software. Media consisted of DMEM-F12 (Invitrogen) containing N2 (Invitrogen) supplemented with glucose (33 mM) and glutamine (2 mM).
# [2] = tested on: corticospinal tract (CST) of rats crushed at the C4 level; details: in vivo; Agudo et al., 2010; cited from earlier work
# cerebellar neurons = test: Neurite outgrowth assay, cerebellar neurons in the presence of myelin / MAG; assay type: cell-based, rat; details: cerebellar neurons grown in the presence of myelin
# Method: as §1
# [3] = tested on: corticospinal tract (CST) of rats crushed at the C4 level; test: Corticospinal tract (CST) crush at C4 in rats, agonist applied to the lateral ventricle; assay type: in vivo; details: rat
# Method: The results are illustrated in Borthwick et al., 2016.
# All animal experiments were carried out under UK home office regulations. Dorsal column lesions were performed on adult male rats as previously described (see, e.g., Bradbury et al., 2002). […] The pumps were placed subcutaneously and connected to a brain infusion catheter (Alzet™), which was inserted into the lateral ventricle (Bregma coordinates: rostrocaudal: −0.8 mm, mediolateral: −1.5 mm and dorsoventral: −4.5 mm). […] The dose was based previous in vivo studies on activation of RARα and RARβ signalling in the adult rat brain (see, e.g., Goncalves et al., 2009). Animals which underwent behavioural studies and subsequent tracing (n=6 per treatment) were kept for six weeks before being sacrificed with a lethal injection of pentobarbital and transcardially perfused with 4% PFA. Dissected tissue (cervical and lumbar spinal cord) was processed for immunofluorescence.
# Descendent corticospinal tract axons were anterogradely traced after the dorsal column crush was performed by injected BDA (10% in PBS, Mw10K from Molecular Probes) into the motor cortex as previously described (see, e.g., Yip et al., 2006). Six injections were done in the right cortex (0.5 μL of BDA/injection point). Animals (n=6 per treatment) were perfused and the spinal cord was transferred to PBS (plus 0.1% sodium azide) and embedded in gelatin (10%, 300 bloom; Sigma, Poole, UK). Gelatin blocks were hardened in 4% paraformaldehyde, and 40 μm free-floating serial transverse sections were cut on a vibratome (Leica, Nussloch, Germany) and collected in 24-well plates containing PBS (plus 0.1% sodium azide).
# BDA was detected using the tyramide amplification kit (Perkin-Elmer) coupled with extra-avidin-FITC (Amersham Pharmacia Biotech, UK, 1:500). All BDA-labelled fibres observed within a 1-mm square grid were counted at measured intervals from 5 mm above to 5 mm below the lesion site by an experimenter, blinded to treatment.
# CST neurons were labelled by retrograde tracing injecting 2 μL of 5% Fluorogold (FG, Molecular Probes) 2 mm deep into the cervical spinal cord (C3-C4) at a rate of 0.5 μL/minute (n=3 rats per group). In sham animals, FG was injected 0.5 mm bilateral to the medial line of spinal cord (1 μL per side), and in lesioned animals FG (2 μL) was injected into the injury. After 14 days, the cortices were fixed for 2 hours in 4% paraformaldehyde (PFA), embedded in OCT compound and stored frozen. Sagittal sections (12 μm) were cut and 4 sequential slides containing 2 sections from lateral 3.4-3.9 mm were taken for analysis (see, e.g., Paxinos and Watson, 2002).
# Immunohistochemistry was carried out using anti-rabbit phospho-Akt (Cell Signalling technology, dilution of 1:100). Secondary antibody used was anti-rabbit Cy3 conjugated (Jackson, used at 1:1000). Images were captured at 100× magnification using a Roperscientific digital camera.
# The behavioural tests were carried out as previously described (see, e.g., Bradbury et al., 2002). Rats (n=6 per treatment group) were first trained for two weeks before surgery to perform grid walk and beam walk; they were then tested by an observer blinded to the experimental treatment once a week for five weeks after lesion.
# [4] = i.c.v. 180 ng/kg/day for 14 days
smiles,measurement,setting,value
"COc1ccc(-c2ccc3cc(C(=O)O)ccc3c2)cc1C1(C)CCCCC1 [CD2019, 6-(4-methoxy-3-(1-methylcyclohexyl)phenyl)-2-naphthalenecarboxylic acid]",Behavioural test (sticky tape),[1],performed as well as non-lesioned animals
same,Axon growth from cultured adult cortex of treated animals,cortical explants,did grow
same,Phospho AKT in the injured CST neurons,[2],induced
same,Neurite outgrowth,cerebellar neurons,causes the outgrowth of neurites
same,Behavioural tests (grid and beam task),[3]; after 5 weeks,performed as well as non-lesioned animals
same,BDA-labelled CST axons crossing the lesion site,"[3]; after 5 weeks, vs vehicle (no axons across)",many axons were observed crossing the injury site
same,"Time to functional recovery, beam task",[3]; [4],2 weeks post lesion
same,"Time to functional recovery, grid task",[3]; [4],4 weeks post lesion
same,RARβ2 expression in the CST neuronal cell bodies,[3]; lateral ventricle for 2 weeks,upregulation of RARβ2
